The source of these data is patent US20210308077A1, “COMBINATIONS INCLUDING BETA-ADRENORECEPTOR AGONISTS FOR TREATMENT OF PARKINSON`S DISEASE AND MOVEMENT DISORDERS” (The Brigham and Women`s Hospital, Inc., priority 2017, published 2021).

“Also recorded” adds a separate entry of the source.

Data set [1] in a line: pharmacokinetics mouse study (plasma and brain, LC-MS/MS). The data set is classed as in vivo. As to the method: (§1) The clenbuterol pharmacokinetic (PK) study was done in wild-type C57BL/6J male mice by ChemPartner Co., LTD in Shanghai. The study was done with 4 groups of four mice; one control group and three treatment groups with clenbuterol administered via intraperitoneal injection at dosages of 1, 5 and 10 mg/kg once every 24 hours. Following completion of the administration schedule, blood samples were collected at various time points (e.g. 0.25, 2, 8, and 24 hours), from the four mice per group per time point (final time point of 24 hours post injection). Mice were sacrificed following each blood collection and brains were removed and snap frozen. Substantia nigra was utilized for SNCA mRNA and protein analysis, whereas the other portions were used for PK studies. Plasma and brain samples were analyzed by LC-MS/MS for compound concentration at each of three concentrations and at each time point. Standard pharmacokinetic parameters (e.g. AUClast, AUCINF, terminal elimination half-life (t1/2), clearance, volume of distribution, time at maximum observed plasma concentration, etc.) were determined in both plasma and brain tissueby WinNonlin V 6.2 statistics software (Pharsight Corporation, California, USA) using a non-compartmental model.

The subject of data set [2] is α-synuclein protein and mRNA in substantia nigra. Briefly: Snca expression in substantia nigra, dose-finding mouse trial. The data set is classed as in vivo. As to conditions: 10 mg/kg intraperitoneal, 24 hours, P<0.05. As to the method:
as §1, with “Substantia nigra was utilized for SNCA mRNA and protein analysis, whereas the other portions were used for PK studies.” left out, “model. […]” for “model.”
Protein lysis buffer containing 320 mM sucrose, 5 mM NaF, 1 mM Na3VO4, 10 mM Tris (pH 7.4), 1 mM EGTA, and 1 mM EDTA was used for mice brain tissue lysis. […] Total protein concentrations were determined by BCA assay (Thermo Scientific) according to the manufacturer's instructions. […]

Data set [3] has the same test system. The experiment in a line: placebo-controlled trial in wild-type mice, Snca expression in substantia nigra. The data set is classed as in vivo, mouse. As for the experimental part:
Twenty C57BL/6J male mice (8 weeks old) (Jackson Laboratory, Bar Harbor Me.) were used for the placebo-controlled trial. Mice were exposed to a 12-hour light and 12-hour dark cycle, maintained at a constant temperature of 22° C., and were cared for in accordance with the National Institutes of Health Guide for the Care and Use of Laboratory Animals. Clenbuterol was purchased from Sigma (St. Louis, Mo.). Clenbuterol (10 mg/kg, injection volume 10 ml/kg) dissolved in saline was administered to mice (N=10) intraperitoneally. Saline was administered as a vehicle treatment (N=10). Mice were euthanized by CO224 hours post-injection. Brains were removed and snap frozen immediately in dry ice. Further dissections were performed on the frozen tissue to obtain substantia nigra regions. Tissue was then stored at −80° C. until mRNA or protein extraction was performed.
Total RNA from flash-frozen mice brain tissue, rodent primary cells, human neuroblastoma cells and iPSC-derived neuronal cells was isolated using TRIzol® (Life Technologies) following the manufacturer's protocol. RNA concentration was measured using NanoDrop spectrophotometer (Thermo Fisher Scientific, Wilmington, De.). 2 μg of total RNA was reverse transcribed into cDNA using the High Capacity cDNA Reverse Transcription Kit from Applied Biosystems. Quantitative PCR was performed using TaqMan Universal PCR Master Mix (Applied Biosystems) on an ABI 7900HT instrument (Applied Biosystems) as described previously (31). […] Expression values were analyzed using the comparative threshold cycle method (31).
Protein lysis buffer containing 320 mM sucrose, 5 mM NaF, 1 mM Na3VO4, 10 mM Tris (pH 7.4), 1 mM EGTA, and 1 mM EDTA was used for mice brain tissue lysis. […] Total protein concentrations were determined by BCA assay (Thermo Scientific) according to the manufacturer's instructions. Total α-synuclein was quantified using an α-synuclein-specific sandwich ELISA. […]

Data set [4] has as its system SNCA mRNA. Briefly: SNCA expression in SNCA-triplication iPSC-derived neurons. As to conditions: SNCA-triplication iPSC-derived neurons cultured for 8 weeks, 20 μM for three days. The data set is classed as cell-based, human. As to the method: To begin neural differentiation, NPCs were dissociated with accutase and re-plated on matrigel-coated T75 flasks (CytoOne). The next day medium was fully changed to Neural Differentiation (ND) medium, which is NB medium supplemented with recombinant human BDNF and GNDF (both at 10 ng/mL; R&D Systems) and dibutyryl cyclic AMP (500 μM; Sigma), and without FGF-2. Thereafter, media was half-changed every other day. On day 7-9, differentiating neurons were gently dissociated to single cell suspension and then resuspended in pre-chilled Hank's balanced salt solution (HBSS; Gibco/Life Technologies) supplemented with 0.1% bovine serum albumin (Gibco/Life Technologies). After a wash step, cells were plated on 6- or 24-well plates pre-coated with poly-ornithine and laminin (BD Biocoat). […]
Total RNA from flash-frozen mice brain tissue, rodent primary cells, human neuroblastoma cells and iPSC-derived neuronal cells was isolated using TRIzol® (Life Technologies) following the manufacturer's protocol. RNA concentration was measured using NanoDrop spectrophotometer (Thermo Fisher Scientific, Wilmington, De.). […] Quantitative PCR was performed using TaqMan Universal PCR Master Mix (Applied Biosystems) on an ABI 7900HT instrument (Applied Biosystems) as described previously (31). […] Expression values were analyzed using the comparative threshold cycle method (31).

Setting [5] is: 10 mg/kg intraperitoneal, 24 hours, vs saline, n=10 per group.

`CC(C)(C)NCC(O)c1cc(Cl)c(N)c(Cl)c1` (stereo not drawn) [clenbuterol]: the brain concentration result in data set [1] (C57BL/6J mice, 10 mg/kg intraperitoneal vs 1 and 5 mg/kg) is given as “highest”. In data set [1] (C57BL/6J mice, 1, 5, or 10 mg/kg intraperitoneal, 24 hours), the brain/plasma ratio result is “increased with doses of 1, 5, or 10 mg of drug per kilogram body weight; also recorded: highest brain/plasma ratio”. For the same compound, the blood-brain barrier crossing entry in data set [1] (wild type C57BL/6J mice, intraperitoneal) is listed as “crossed the blood-brain barrier”. For the same compound, in data set [2], the “nigral α-synuclein mRNA levels” value is on record as “significant reduction” and the “nigral α-synuclein protein levels” value is “significant reduction”. For the same compound, in data set [3] (setting [5]), the “endogenous α-synuclein mRNA in substantia nigra” value is listed as “lowered” and the “endogenous α-synuclein protein in substantia nigra” value is recorded as “lowered”. The “α-synuclein protein in substantia nigra by Western blotting” value in data set [3] (anti-α-synuclein antibodies 2F12 and C-20) is “confirmed by Western blotting”. In addition, the SNCA expression entry in data set [4] was “reduced”.
